Columns and labels:
Test in all cases: Test B pre-/postemergence plant response
Type in all cases: in vivo
[1] = tested on: goosegrass (Eleusine indica)
Method in brief: (§1)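 Compound in solvent + surfactant applied pre-em (loam/sand) or post-em (plants 2–18 cm, peat medium); greenhouse hold 13–15 days; visual 0–100 control score.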

[2] = tested on: woolly cupgrass (Eriochloa villosa)
Method in brief: as §1

[3] = tested on: large crabgrass (Digitaria sanguinalis)
Method in brief: as §1

[4] = tested on: velvetleaf (Abutilon theophrasti)
Method in brief: as §1

[5] = tested on: Italian ryegrass (Lolium multiflorum)
Method in brief: as §1

[6] = tested on: pigweed (Amaranthus retroflexus)
Method in brief: as §1

[7] = tested on: ragweed (common ragweed, Ambrosia elatior)
Method in brief: as §1

[8] = tested on: yellow nutsedge (Cyperus esculentus)
Method in brief: as §1

[9] = tested on: downy bromegrass (Bromus tectorum)
Method in brief: as §1

[10] = tested on: wheat (Triticum aestivum)
Method in brief: as §1

[11] = tested on: Surinam grass (Brachiaria decumbens)
Method in brief: as §1

[12] = tested on: lambsquarters (Chenopodium album)
Method in brief: as §1

[13] = tested on: green foxtail (Setaria viridis)
Method in brief: as §1

[14] = Postemergence, 31 g ai/ha, 0 to 100 scale (0 no effect, 100 complete control)
[15] = Postemergence, 62 g ai/ha, scale 0 to 100 (0 no effect, 100 complete control)
[16] = Postemergence, 125 g ai/ha, scale 0 (no effect) to 100 (complete control), 13 to 15 days
[17] = Postemergence, 250 g ai/ha, scale 0 to 100 (0 no effect, 100 complete control), 13 to 15 days
[18] = Preemergence, 31 g ai/ha, scale 0 to 100 (0 no effect, 100 complete control)
[19] = Preemergence, 62 g ai/ha, scale 0 to 100 (0 no effect, 100 complete control)
[20] = Preemergence, 125 g ai/ha, scale 0 to 100, 0 no effect, 100 complete control
[21] = Preemergence, 250 g ai/ha, 0 to 100 scale

CCCCn1c(-c2cc(F)cc(F)c2)ncc(C(=O)C2=C(O)C3CCC(C3)C2=O)c1=O (centres unmarked) [Compound 245]
75: Plant response rating, Ragweed [7, 18] | Plant response rating, Nutsedge, Yellow [8, 17] | Plant response rating, Wheat [10, 14] | Plant response rating, Foxtail, Green [13, 20]
5: Plant response rating, Wheat [10, 20]
100: Plant response rating, Goosegrass [1, 16] | Plant response rating, Goosegrass [1, 17] | Plant response rating, Goosegrass [1, 19] | Plant response rating, Goosegrass [1, 20] | Goosegrass plant response rating [1, 21] | Plant response rating, Cupgrass, Woolly [2, 14] | Plant response rating, Cupgrass, Woolly [2, 15] | Plant response rating, Cupgrass, Woolly [2, 16] | Plant response rating, Cupgrass, Woolly [2, 17] | Cupgrass, Woolly plant response rating [2, 21] | Plant response rating, Crabgrass, Large [3, 15] | Plant response rating, Crabgrass, Large [3, 16] | Plant response rating, Crabgrass, Large [3, 17] | Plant response rating, Crabgrass, Large [3, 19] | Plant response rating, Crabgrass, Large [3, 20] | Crabgrass, Large plant response rating [3, 21] | Plant response rating, Velvetleaf [4, 14] | Plant response rating, Velvetleaf [4, 15] | Plant response rating, Velvetleaf [4, 16] | Plant response rating, Velvetleaf [4, 17] | Plant response rating, Velvetleaf [4, 19] | Plant response rating, Velvetleaf [4, 20] | Velvetleaf plant response rating [4, 21] | Plant response rating, Pigweed [6, 16] | Plant response rating, Pigweed [6, 17] | Plant response rating, Pigweed [6, 20] | Pigweed plant response rating [6, 21] | Plant response rating, Ragweed [7, 16] | Plant response rating, Ragweed [7, 17] | Plant response rating, Ragweed [7, 20] | Ragweed plant response rating [7, 21] | Plant response rating, Surinam Grass [11, 14] | Plant response rating, Surinam Grass [11, 15] | Plant response rating, Surinam Grass [11, 16] | Plant response rating, Surinam Grass [11, 17] | Plant response rating, Surinam Grass [11, 19] | Plant response rating, Surinam Grass [11, 20] | Surinam Grass plant response rating [11, 21] | Plant response rating, Lambsquarters [12, 15] | Plant response rating, Lambsquarters [12, 16] | Plant response rating, Lambsquarters [12, 17] | Plant response rating, Lambsquarters [12, 18] | Plant response rating, Lambsquarters [12, 19] | Plant response rating, Lambsquarters [12, 20] | Lambsquarters plant response rating [12, 21] | Plant response rating, Foxtail, Green [13, 16] | Plant response rating, Foxtail, Green [13, 17] | Foxtail, Green plant response rating [13, 21]
50: Plant response rating, Cupgrass, Woolly [2, 18] | Plant response rating, Ryegrass, Italian [5, 15]
60: Plant response rating, Crabgrass, Large [3, 18] | Plant response rating, Bromegrass, Downy [9, 14]
65: Plant response rating, Nutsedge, Yellow [8, 20]
0: Plant response rating, Ryegrass, Italian [5, 18] | Plant response rating, Ryegrass, Italian [5, 19] | Plant response rating, Ryegrass, Italian [5, 20] | Plant response rating, Nutsedge, Yellow [8, 18] | Plant response rating, Nutsedge, Yellow [8, 19] | Plant response rating, Bromegrass, Downy [9, 18] | Plant response rating, Bromegrass, Downy [9, 19] | Plant response rating, Bromegrass, Downy [9, 20] | Plant response rating, Wheat [10, 18] | Plant response rating, Wheat [10, 19] | Plant response rating, Foxtail, Green [13, 18] | Plant response rating, Foxtail, Green [13, 19]
98: Plant response rating, Goosegrass [1, 14] | Plant response rating, Goosegrass [1, 15] | Plant response rating, Pigweed [6, 15] | Plant response rating, Ragweed [7, 15] | Plant response rating, Wheat [10, 17] | Plant response rating, Lambsquarters [12, 14] | Plant response rating, Foxtail, Green [13, 15]
70: Plant response rating, Cupgrass, Woolly [2, 19] | Plant response rating, Ryegrass, Italian [5, 16] | Plant response rating, Nutsedge, Yellow [8, 16]
40: Plant response rating, Ryegrass, Italian [5, 14] | Ryegrass, Italian plant response rating [5, 21] | Plant response rating, Nutsedge, Yellow [8, 14]
80: Plant response rating, Cupgrass, Woolly [2, 20] | Plant response rating, Crabgrass, Large [3, 14] | Plant response rating, Pigweed [6, 14] | Plant response rating, Pigweed [6, 18] | Nutsedge, Yellow plant response rating [8, 21]
85: Plant response rating, Ryegrass, Italian [5, 17] | Plant response rating, Ragweed [7, 19] | Plant response rating, Foxtail, Green [13, 14]
95: Plant response rating, Goosegrass [1, 18] | Plant response rating, Velvetleaf [4, 18] | Plant response rating, Pigweed [6, 19] | Plant response rating, Ragweed [7, 14] | Plant response rating, Bromegrass, Downy [9, 15] | Plant response rating, Bromegrass, Downy [9, 16] | Plant response rating, Bromegrass, Downy [9, 17] | Plant response rating, Wheat [10, 15] | Plant response rating, Wheat [10, 16] | Plant response rating, Surinam Grass [11, 18]
15: Bromegrass, Downy plant response rating [9, 21] | Wheat plant response rating [10, 21]
45: Plant response rating, Nutsedge, Yellow [8, 15]

Source: patent US8952024B2, “Herbicidal pyrimidone derivatives” (E I du Pont de Nemours and Company, priority 2009, dated 2015)
